Experimental findings from US10392422B2, “Macrocyclic broad spectrum antibiotics” (priority 2014, dated 2019) are described below.

Values after ≈ are worked out from the molar mass of the structure shown. Like-named read-outs stand apart in the source and are kept apart here. Where only a bound is given, the exact number is not on record here.

Common to all, as to assay: MIC, broth micro-dilution technique (CLSI)
In general terms: Dilution methods test growth across graded concentrations, often in twofold steps.

In assay [1] the test system is Methicillin Resistant Staphylococcus aureus strain USA 300 (NRS384). It is filed as cell-based. The conditions noted are these: for MIC: Staphylococcus aureus, 22 h, read-out: MIC (μg/mL) S. aureus. An outline of the steps: (§1)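 Cation-adjusted MHB + 0.002% Tween-80; 10-point 2-fold series starting 64 μg/ml (modified protocol: 4 μg/mL). Final inoculum OD600 0.0005; 35° C, 22 h. MIC per CLSI M07-A8 broth microdilution.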

Assay [2] relates to Escherichia coli MC4100 harboring the IMP4213. It is filed as cell-based. The conditions noted are these: 35° C., 22 hours; for MIC: Escherichia coli, 22 h. An outline of the steps:
as §1

Another assay deals with MRSA COL (NRS100). In kind it is cell-based, Staphylococcus aureus. The conditions noted are these: for MIC: Staphylococcus aureus, 22 h, read-out: MIC (μg/mL) (COL). In outline: as §1
Where [3] appears, read: read-out: MIC (μg/mL) E. coli, Table 1 protocol: serial 2-fold dilutions starting from 64 μg/ml.
Where [4] appears, read: Table 1 protocol: serial 2-fold dilutions starting from 64 μg/ml, 35° C., 22 hours.
[5] abbreviates: Table 1 protocol: serial 2-fold dilutions starting from 64 μg/ml.
Where [6] appears, read: read-out: MIC (μg/mL) E. coli, Table 2 modified protocol: serial 2-fold dilutions starting from 4 μg/mL.
Where [7] appears, read: Table 2 modified protocol: serial 2-fold dilutions starting from 4 μg/mL, 35° C., 22 hours.
Where [8] appears, read: Table 2 modified protocol: serial 2-fold dilutions starting from 4 μg/mL.

Turning to `C[C@@H]1NC(=O)[C@@H](N(C)C(=O)[C@H](CCCCN)NC(=O)c2ccc(-c3ccc(Cl)cc3)cc2)c2ccc(O)c(c2)-c2cc(ccc2O)C[C@@H](C(=O)N[C@@H](C)C(=O)C(=O)O)NC1=O` [Compound 140], the MIC in assay [1] was determined as 23 µg/mL (≈ 26.9 µM); in assay [2] (setting [3]), 8 µg/mL (≈ 9.35 µM); in the assay with MRSA COL (NRS100) it was 8 µg/mL (≈ 9.35 µM).

As for `C[C@@H]1NC(=O)[C@@H](N(C)C(=O)[C@H](CCCCN)NC(=O)c2ccc(-c3ccc(Cl)cc3)cc2)c2ccc(O)c(c2)-c2cc(ccc2O)C[C@@H](C(=O)N[C@@H](C)C(=O)N(C)CC(N)=O)NC1=O` [Compound 182], the values for the MIC (in assay [1] (setting [4]); in assay [2] (setting [3]); in the assay with MRSA COL (NRS100) (setting [4])) were 10 µg/mL (≈ 11.1 µM), 64 µg/mL (≈ 71.3 µM) and 2 µg/mL (≈ 2.23 µM), respectively.

In the case of `C[C@H](NC(=O)[C@@H]1Cc2ccc(O)c(c2)-c2cc(ccc2O)[C@H](N(C)C(=O)[C@H](CCCCN)NC(=O)c2ccc(-c3ccc(Cl)cc3)cc2)C(=O)N[C@@H](C)C(=O)N1)B1O[C@@H]2C[C@@H]3C[C@@H](C3(C)C)[C@]2(C)O1` [Compound 133], the MIC in assay [1] stood at 2.5 µg/mL (≈ 2.6 µM); in assay [2] (setting [3]) it was 2 µg/mL (≈ 2.08 µM); with MRSA COL (NRS100) it was 1.5 µg/mL (≈ 1.56 µM).

`C[C@@H]1NC(=O)[C@@H](N(C)C(=O)[C@H](CCCCN)NC(=O)c2ccc(-c3ccc(Cl)cc3)cc2)c2ccc(O)c(c2)-c2cc(ccc2O)C[C@@H](C(=O)N[C@@H](C)C(=O)C(F)(F)C(=O)O)NC1=O` [Compound 152]: the “MIC (μg/mL) S. aureus” value in assay [1] (setting [4]) is 10 µg/mL (≈ 11 µM). Moreover, the “MIC (μg/mL) E. coli” value in assay [2] (setting [5]) worked out at 16 µg/mL (≈ 17.7 µM). The “MIC (μg/mL) (COL)” value in the assay with MRSA COL (NRS100) (setting [4]) stood at 4 µg/mL (≈ 4.42 µM).

On to `C[C@@H]1NC(=O)[C@@H](N(C)C(=O)[C@H](CCCCN)NC(=O)c2ccc(-c3ccc(Cl)cc3)cc2)c2ccc(O)c(c2)-c2cc(ccc2O)C[C@@H](C(=O)N[C@@H](C)/C=C/S(N)(=O)=O)NC1=O` [Compound 249], for which the results for the MIC (in assay [1]; in assay [2] (setting [3]); in the assay with MRSA COL (NRS100)) were 32 µg/mL (≈ 36 µM), 48 µg/mL (≈ 54 µM) and 16 µg/mL (≈ 18 µM), respectively.

Take `CCCCCCCCCCNCCC(=O)N[C@@H](CCCCN)C(=O)N(C)[C@@H]1C(=O)N[C@@H](C)C(=O)N[C@H](C(=O)N[C@@H](C)C(C)=O)Cc2ccc(OCCN)c(c2)-c2cc1ccc2OCCN.O=CO` [Compound 270]: the “MIC (μg/mL) S. aureus” value in assay [1] (setting [4]) stood at 0.25 µg/mL. The “MIC (μg/mL) E. coli” value in assay [2] (setting [5]) is 8 µg/mL. Also, in the assay on MRSA COL (NRS100) (setting [4]), the “MIC (μg/mL) (COL)” value came out at 0.063 µg/mL.

As for `C[C@@H]1NC(=O)[C@@H](N(C)C(=O)[C@H](CCCCN)NC(=O)c2ccc(-c3ccc(Cl)cc3)cc2)c2ccc(O)c(c2)-c2cc(ccc2O)C[C@@H](C(=O)N[C@@H](C)C(=O)N2C[C@@H](O)C[C@H]2C(N)=O)NC1=O` [Compound 177], the MIC was determined as 16 µg/mL (≈ 17 µM) in assay [1] (setting [4]), 64 µg/mL (≈ 68.1 µM) in assay [2] (setting [3]) and 4 µg/mL (≈ 4.26 µM) in the assay with MRSA COL (NRS100) (setting [4]).

Turning to `C[C@@H]1NC(=O)[C@@H](N(C)C(=O)[C@H](CCCCN)NC(=O)c2ccc(-c3ccc(Cl)cc3)cc2)c2ccc(O)c(c2)-c2cc(ccc2O)C[C@@H](C(=O)N[C@@H](C)C(=O)N(C)[C@@H](CO)C(N)=O)NC1=O` [Compound 198], the figures for the MIC (in assay [1] (setting [4]); in assay [2] (setting [3]); in the assay with MRSA COL (NRS100) (setting [4])) were 13 µg/mL (≈ 14 µM), 16 µg/mL (≈ 17.3 µM) and 2 µg/mL (≈ 2.16 µM), respectively.

For `CCCCCCCCc1ccc(C(=O)N[C@@H](CCCN)C(=O)N(C)[C@@H]2C(=O)N[C@@H](C)C(=O)N[C@H](C(=O)NCB3O[C@@H]4C[C@@H]5C[C@@H](C5(C)C)[C@]4(C)O3)Cc3ccc(OCCN)c(c3)-c3cc2ccc3OCCN)cc1` [Compound 324], the MIC in assay [1] was 0.25 µg/mL (≈ 0.245 µM); in assay [2] (setting [6]), 0.13 µg/mL (≈ 0.127 µM); with MRSA COL (NRS100), 0.13 µg/mL (≈ 0.127 µM).

On to `CNC(=O)C(=O)CNC(=O)[C@@H]1Cc2ccc(O)c(c2)-c2cc(ccc2O)[C@H](N(C)C(=O)[C@H](CCCCN)NC(=O)c2ccc(-c3ccc(Cl)cc3)cc2)C(=O)N[C@@H](C)C(=O)N1` [Compound 238], for which the MIC is 32 µg/mL (≈ 37.5 µM) in assay [1] (setting [4]), 64 µg/mL (≈ 74.9 µM) in assay [2] (setting [3]) and 8 µg/mL (≈ 9.36 µM) with MRSA COL (NRS100) (setting [4]).

As to `C[C@@H]1NC(=O)[C@@H](N(C)C(=O)[C@H](CCCCN)NC(=O)c2ccc(-c3ccc(Cl)cc3)cc2)c2ccc(OCCN)c(c2)-c2cc(ccc2OCCN)C[C@@H](C(=O)N[C@@H](C)C(=O)N2CCC[C@H]2C(N)=O)NC1=O` [Compound 277], the figures for the MIC (in assay [1] (setting [4]); in assay [2] (setting [3]); in the assay with MRSA COL (NRS100) (setting [4])) were 0.75 µg/mL (≈ 0.743 µM), 2 µg/mL (≈ 1.98 µM) and 0.25 µg/mL (≈ 0.248 µM), respectively.

As for `C[C@@H]1NC(=O)[C@@H](N(C)C(=O)[C@H](CCCCN)NC(=O)c2ccc(-c3ccc(Cl)cc3)cc2)c2cc(c3oc(CN)cc3c2)-c2cc(ccc2O)C[C@@H](C(=O)O)NC1=O` [Compound 211], the MIC worked out at 11 µg/mL (≈ 13.6 µM) in assay [1], 2 µg/mL (≈ 2.47 µM) in assay [2] (setting [3]) and 2 µg/mL (≈ 2.47 µM) in the assay with MRSA COL (NRS100).

Take `C[C@@H]1NC(=O)[C@@H](N(C)C(=O)[C@H](CCCCN)NC(=O)c2ccc(-c3ccc(Cl)cc3)cc2)c2ccc(O)c(c2)-c2cc(ccc2O)C[C@@H](C(=O)N[C@@H](C)C(=O)c2ncc[nH]2)NC1=O` [Compound 232]: the MIC in assay [1] (setting [4]) is 4 µg/mL (≈ 4.56 µM); in assay [2] (setting [3]) it was 8 µg/mL (≈ 9.12 µM); with MRSA COL (NRS100) (setting [4]), 1 µg/mL (≈ 1.14 µM).

Take `C[C@@H]1NC(=O)[C@@H](N(C)C(=O)[C@H](CCCCN)NC(=O)c2ccc(-c3ccc(Cl)cc3)cc2)c2ccc(O)c(c2)-c2cc(ccc2O)C[C@@H](C(=O)N[C@@H](C)C(=O)N(C)[C@H]2CCNC2=O)NC1=O` [Compound 136]: the MIC in assay [1] (setting [4]) was 8 µg/mL (≈ 8.66 µM); in assay [2] (setting [3]), 16 µg/mL (≈ 17.3 µM); in the assay with MRSA COL (NRS100) (setting [4]), 2 µg/mL (≈ 2.17 µM).

With `C[C@@H]1NC(=O)[C@@H](N(C)C(=O)[C@H](CCCCN)NS(=O)(=O)c2ccc(-c3ccc(Cl)cc3)cc2)c2ccc(O)c(c2)-c2cc(ccc2O)C[C@@H](C(=O)N[C@@H](C)C(=O)N2CCC[C@H]2C(N)=O)NC1=O` [Compound 225], the figures for the MIC (in assay [1] (setting [4]); in assay [2] (setting [3]); with MRSA COL (NRS100) (setting [4])) were 23 µg/mL (≈ 24 µM), over 64 µg/mL and 6 µg/mL (≈ 6.25 µM), respectively.

Take `C[C@H](NC(=O)[C@@H]1Cc2ccc(O)c(c2)-c2cc(ccc2O)[C@H](N(C)C(=O)[C@H](CCCCN)NC(=O)c2ccc(-c3ccc(Cl)cc3)cc2)C(=O)N[C@@H](C)C(=O)N1)C(=O)/C=C/c1cc[nH]n1` [Compound 129]: the MIC in assay [1] (setting [4]) is 16 µg/mL (≈ 17.7 µM); in assay [2] (setting [3]), over 64 µg/mL; with MRSA COL (NRS100) (setting [4]) it was 4 µg/mL (≈ 4.43 µM).

`CCCCCCCCCC(=O)N[C@@H](CC[S+](C)[O-])C(=O)N(C)[C@@H]1C(=O)N[C@@H](C)C(=O)N[C@H](C(=O)N[C@@H](C)C(C)=O)Cc2ccc(OCCN)c(c2)-c2cc1ccc2OCCN` (stereo partly drawn) [Compound 262]: the “MIC (μg/mL) S. aureus” value in assay [1] (setting [7]) was over 4 µg/mL. Also, the “MIC (μg/mL) E. coli” value in assay [2] (setting [8]) is over 4 µg/mL. In addition, in the assay with MRSA COL (NRS100) (setting [7]), the “MIC (μg/mL) (COL)” value stood at 2 µg/mL (≈ 2.3 µM).

For the compound `CCCCCCCCCC(=O)N[C@@H](CO)C(=O)N(C)[C@@H]1C(=O)N[C@@H](C)C(=O)N[C@H](C(=O)N[C@@H](C)C(=O)c2nnn[nH]2)Cc2ccc(OCCN)c(c2)-c2cc1ccc2OCCN.O=CO` [Compound 265], the “MIC (μg/mL) S. aureus” value in assay [1] (setting [7]) was found to be 1 µg/mL. The “MIC (μg/mL) E. coli” value in assay [2] (setting [8]) was 4 µg/mL. Further, the “MIC (μg/mL) (COL)” value against MRSA COL (NRS100) (setting [7]) came to 0.25 µg/mL.

As for `CCCCCCCCCCCCS(=O)(=O)N[C@@H](CCCCN)C(=O)N(C)[C@@H]1C(=O)N[C@@H](C)C(=O)N[C@H](C(=O)O)Cc2ccc(O)c(c2)-c2cc1ccc2O` [Compound 220], the MIC was determined as 2 µg/mL (≈ 2.58 µM) in assay [1], 16 µg/mL (≈ 20.7 µM) in assay [2] (setting [3]) and 0.33 µg/mL (≈ 0.426 µM) in the assay with MRSA COL (NRS100).

As for `CCCCCCCCc1ccc(C(=O)N[C@@H](CN)C(=O)N(C)[C@@H]2C(=O)N[C@@H](C)C(=O)N[C@H](C(=O)O)Cc3ccc(OCCN)c(c3)-c3cc2ccc3OCCN)cc1` [Compound 300], the MIC stood at 0.5 µg/mL (≈ 0.623 µM) in assay [1], 0.023 µg/mL (≈ 0.0287 µM) in assay [2] (setting [6]) and 0.13 µg/mL (≈ 0.162 µM) in the assay with MRSA COL (NRS100).
